In patent publication US20100227859A1, “TRICYCLIC COMPOUNDS AS MATRIX METALLOPROTEINASE INHIBITORS” (priority 2007, published 2010):

Target: purified human MMP-12 enzyme (Homo sapiens, UniProt P39900)
Assay: MMP-12 FRET assay
Format: biochemical
Settings: substrate 20 μM, room temperature
Method: Compounds according to the present teachings were tested in an MMP-12 FRET assay as follows. To each well of black polystyrene 96-well plate was added assay buffer (50 mM HEPES (pH 7.4), 100 mM NaCl, 5 mM CaCl2 and 0.005% Brij-35 (Polyoxyethyleneglycol dodecyl ether, Pierce cat#20150), purified human MMP-12 enzyme, and varied concentrations of test compounds (prepared by serial dilution of a stock solution in 100% DMSO). The plates were incubated at room temperature for 30 minutes. The enzymatic reactions were initiated by addition of a substrate, MCA-Pro-Leu-Gly-Leu-Dpa(DNP)-Ala-Arg, containing a fluorescent group (7-methoxycoumarin, MCA) and a 2,4-dinitrophenyl group (DNP), to a final concentration of 20 μM. The final DMSO concentration in the assay was 10%. The reaction was monitored for 30 minutes at room temperature and the initial rate of the cleavage reaction was determined using a fluorescence plate reader (λex: 325 nm, λem: 395 nm). Plots of the inhibitor concentration vs. the initial cleavage rate were fit to the following equation: y=Vmax*(1−(x^n/(K^n+x^n))), whereby x=inhibitor concentration, y=initial rate, Vmax=initial rate in the absence of inhibitor, n=slope factor, and K=IC50 for the inhibition curve.

Chain of purified human MMP-12 enzyme (P39900 106-470): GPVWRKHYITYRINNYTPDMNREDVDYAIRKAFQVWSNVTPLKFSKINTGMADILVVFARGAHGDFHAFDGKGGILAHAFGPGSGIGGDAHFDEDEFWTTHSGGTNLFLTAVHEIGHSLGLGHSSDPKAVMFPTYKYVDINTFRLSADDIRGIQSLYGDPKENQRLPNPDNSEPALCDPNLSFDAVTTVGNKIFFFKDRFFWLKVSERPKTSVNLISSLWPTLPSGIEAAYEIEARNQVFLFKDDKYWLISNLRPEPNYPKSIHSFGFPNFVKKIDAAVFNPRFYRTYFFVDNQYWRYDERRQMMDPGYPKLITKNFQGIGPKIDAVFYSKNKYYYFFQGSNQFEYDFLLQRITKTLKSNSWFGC

IC50 [nM] | Compound
1.9 | CC(C)[C@H](NS(=O)(=O)c1ccc2c(c1)oc1ccc(-c3ccco3)cc12)C(=O)O [Compound 37, (S)-2-(8-(furan-2-yl)dibenzo[b,d]furan-3-sulfonamido)-3-methylbutanoic acid]
39 | CCN(C#Cc1ccc2oc3cc(S(=O)(=O)N[C@H](C(=O)O)C(C)C)ccc3c2c1)CC [Compound 39, (S)-2-(8-((diethylamino)ethynyl)dibenzo[b,d]furan-3-sulfonamido)-3-methylbutanoic acid]
88 | CC(C)CCn1cc(-c2ccc3sc4cc(S(=O)(=O)N[C@H](C(=O)O)C(C)C)ccc4c3c2)cn1 [Compound 43, (S)-2-(8-(1-isopentyl-1H-pyrazol-4-yl)dibenzo[b,d]thiophene-3-sulfonamido)-3-methylbutanoic acid]
289 | CC(C)[C@H](NS(=O)(=O)c1ccc2c(c1)sc1ccc(-c3cc4ccccc4s3)cc12)C(=O)O [Compound 46, (S)-2-(8-(benzo[b]thiophen-2-yl)dibenzo[b,d]thiophene-3-sulfonamido)-3-methylbutanoic acid]
2.9 | CC(=O)c1ccc(-c2ccc3sc4cc(S(=O)(=O)N[C@H](C(=O)O)C(C)C)ccc4c3c2)s1 [Compound 47, (S)-2-(8-(5-acetylthiophen-2-yl)dibenzo[b,d]thiophene-3-sulfonamido)-3-methylbutanoic acid]
> 1000 | CC(C)[C@H](NS(=O)(=O)c1ccc2c(c1)sc1c(-c3ccsc3Cl)cccc12)C(=O)O [Compound 51, (S)-2-(6-(2-chlorothiophen-3-yl)dibenzo[b,d]thiophene-3-sulfonamido)-3-methylbutanoic acid]
43 | CC(C)[C@H](NS(=O)(=O)c1ccc2c(c1)sc1ccc(-c3ccco3)cc12)C(=O)O [Compound 53, (S)-2-(8-(furan-2-yl)dibenzo[b,d]thiophene-3-sulfonamido)-3-methylbutanoic acid]
8.4 | CC(C)[C@H](NS(=O)(=O)c1ccc2c(c1)sc1ccc(-c3ccncc3)cc12)C(=O)O [Compound 56, (S)-3-methyl-2-(8-(pyridin-4-yl)dibenzo[b,d]thiophene-3-sulfonamido)butanoic acid]
< 1.5 | CC(C)[C@H](NS(=O)(=O)c1ccc2c(c1)oc1ccc(-c3ccc(-c4ccc(Cl)nc4)nc3)cc12)C(=O)O [Compound 59, (S)-2-(8-(6′-chloro-2,3′-bipyridin-5-yl)dibenzo[b,d]furan-3-sulfonamido)-3-methylbutanoic acid]
< 1.5 | CC(C)[C@H](NS(=O)(=O)c1ccc2c(c1)sc1cc(-c3ccoc3)ccc12)C(=O)O [Compound 60, (S)-2-(7-(furan-3-yl)dibenzo[b,d]thiophene-3-sulfonamido)-3-methylbutanoic acid]
33 | CC(C)[C@H](NS(=O)(=O)c1ccc2c(c1)sc1ccc(-c3ccc(Cl)nc3)cc12)C(=O)O [Compound 63, (S)-2-(8-(6-chloropyridin-3-yl)dibenzo[b,d]thiophene-3-sulfonamido)-3-methylbutanoic acid]
< 1.5 | C/C=C/c1ccc2oc3cc(S(=O)(=O)N[C@H](C(=O)O)C(C)C)ccc3c2c1 [Compound 66, (S,E)-3-methyl-2-(8-(prop-1-enyl)dibenzo[b,d]furan-3-sulfonamido)butanoic acid]

The remaining lines, values behind:

Compound | IC50 [nM]
Cc1csc(-c2ccc3oc4cc(S(=O)(=O)N[C@H](C(=O)O)C(C)C)ccc4c3c2)c1 [Compound 33, (S)-3-methyl-2-(8-(4-methylthiophen-2-yl)dibenzo[b,d]furan-3-sulfonamido)butanoic acid] | < 1.5
CC(C)[C@H](NS(=O)(=O)c1ccc2c(c1)oc1ccc(-c3ccsc3Cl)cc12)C(=O)O [Compound 34, (S)-2-(8-(2-chlorothiophen-3-yl)dibenzo[b,d]furan-3-sulfonamido)-3-methylbutanoic acid] | < 1.5
CC(C)[C@H](NS(=O)(=O)c1ccc2c(c1)oc1ccc(/C=C/C3CCCCC3)cc12)C(=O)O [Compound 35, (S,E)-2-(8-(2-cyclohexylvinyl)dibenzo[b,d]furan-3-sulfonamido)-3-methylbutanoic acid] | < 1.5
COC#Cc1ccc2oc3cc(S(=O)(=O)N[C@H](C(=O)O)C(C)C)ccc3c2c1 [Compound 38, (S)-2-(8-(methoxyethynyl)dibenzo[b,d]furan-3-sulfonamido)-3-methylbutanoic acid] | < 1.5
CC(C)[C@H](NS(=O)(=O)c1ccc2c(c1)sc1ccc(-c3cnn(C)c3)cc12)C(=O)O [Compound 40, (S)-3-methyl-2-(8-(1-methyl-1H-pyrazol-4-yl)dibenzo[b,d]thiophene-3-sulfonamido)butanoic acid] | 2.6
Cc1n[nH]c(C)c1-c1ccc2sc3cc(S(=O)(=O)N[C@H](C(=O)O)C(C)C)ccc3c2c1 [Compound 41, (S)-2-(8-(3,5-dimethyl-1H-pyrazol-4-yl)dibenzo[b,d]thiophene-3-sulfonamido)-3-methylbutanoic acid] | 77
CCCn1cc(-c2ccc3sc4cc(S(=O)(=O)N[C@H](C(=O)O)C(C)C)ccc4c3c2)cn1 [Compound 42, (S)-3-methyl-2-(8-(1-propyl-1H-pyrazol-4-yl)dibenzo[b,d]thiophene-3-sulfonamido)butanoic acid] | 7.8
CC(C)[C@H](NS(=O)(=O)c1ccc2c(c1)sc1ccc(-c3cnn(Cc4ccccc4)c3)cc12)C(=O)O [Compound 44, (S)-2-(8-(1-benzyl-1H-pyrazol-4-yl)dibenzo[b,d]thiophene-3-sulfonamido)-3-methylbutanoic acid] | 65
CC(C)[C@H](NS(=O)(=O)c1ccc2c(c1)sc1ccc(-c3cn[nH]c3)cc12)C(=O)O [Compound 45, (S)-2-(8-(1H-pyrazol-4-yl)dibenzo[b,d]thiophene-3-sulfonamido)-3-methylbutanoic acid] | 5.5
CC(C)[C@H](NS(=O)(=O)c1ccc2c(c1)oc1ccc(-c3occc3CN(C)C)cc12)C(=O)O [Compound 48, (S)-2-(8-(3-((dimethylamino)methyl)furan-2-yl)dibenzo[b,d]furan-3-sulfonamido)-3-methylbutanoic acid] | 118
CC(C)[C@H](NS(=O)(=O)c1ccc2c(c1)oc1ccc(-c3sccc3CN(C)C)cc12)C(=O)O [Compound 49, (S)-2-(8-(3-((dimethylamino)methyl)thiophen-2-yl)dibenzo[b,d]furan-3-sulfonamido)-3-methylbutanoic acid] | 228
CC(C)[C@H](NS(=O)(=O)c1ccc2c(c1)oc1ccc(-c3ccc(C(C)N(C)C)s3)cc12)C(=O)O (stereo partly drawn) [Compound 50, (S)-2-(8-(5-(1-(dimethylamino)ethyl)thiophen-2-yl)dibenzo[b,d]furan-3-sulfonamido)-3-methylbutanoic acid] | 5.7
CC(C)[C@H](NS(=O)(=O)c1ccc2c(c1)sc1ccc(-c3ccsc3Cl)cc12)C(=O)O [Compound 52, (S)-2-(8-(2-chlorothiophen-3-yl)dibenzo[b,d]thiophene-3-sulfonamido)-3-methylbutanoic acid] | 19
CC(C)[C@H](NS(=O)(=O)c1ccc2c(c1)sc1ccc(-c3ccc(-c4ccc(-c5ccc(Cl)nc5)nc4)nc3)cc12)C(=O)O [Compound 54, (S)-2-[8-(6″-Chloro-[2,3′;6′,3″]terpyridin-5-yl)-dibenzothiophene-3-sulfonylamino]-3-methyl-butanoic acid] | 483
COc1ccc(-c2ccc3sc4cc(S(=O)(=O)N[C@H](C(=O)O)C(C)C)ccc4c3c2)cn1 [Compound 55, (S)-2-(8-(6-methoxypyridin-3-yl)dibenzo[b,d]thiophene-3-sulfonamido)-3-methylbutanoic acid] | 65
CC(C)[C@H](NS(=O)(=O)c1ccc2c(c1)sc1ccc(-c3ccc[nH]3)cc12)C(=O)O [Compound 57, (S)-2-(8-(1H-pyrrol-2-yl)dibenzo[b,d]thiophene-3-sulfonamido)-3-methylbutanoic acid] | 21
CC(C)[C@H](NS(=O)(=O)c1ccc2c(c1)sc1ccc(/C=C/C3CCCCC3)cc12)C(=O)O [Compound 58, (S,E)-2-(8-(2-cyclohexylvinyl)dibenzo[b,d]thiophene-3-sulfonamido)-3-methylbutanoic acid] | 18
CC(C)[C@H](NS(=O)(=O)c1ccc2c(c1)sc1ccc(-c3ccc(-c4ccc(Cl)nc4)nc3)cc12)C(=O)O [Compound 61, (S)-2-(8-(6′-chloro-2,3′-bipyridin-5-yl)dibenzo[b,d]thiophene-3-sulfonamido)-3-methylbutanoic acid] | 276
Cc1csc(-c2ccc3sc4cc(S(=O)(=O)N[C@H](C(=O)O)C(C)C)ccc4c3c2)c1 [Compound 62, (S)-3-methyl-2-(8-(4-methylthiophen-2-yl)dibenzo[b,d]thiophene-3-sulfonamido)butanoic acid] | 44
CC(C)[C@H](NS(=O)(=O)c1ccc2c(c1)oc1ccc(-c3ccc(Cl)nc3)cc12)C(=O)O [Compound 64, (S)-2-(8-(6-chloropyridin-3-yl)dibenzo[b,d]furan-3-sulfonamido)-3-methylbutanoic acid] | < 1.5
COCC#Cc1ccc2c(c1)sc1cc(S(=O)(=O)N[C@H](C(=O)O)C(C)C)ccc12 [Compound 65, (S)-2-(7-(3-methoxyprop-1-ynyl)dibenzo[b,d]thiophene-3-sulfonamido)-3-methylbutanoic acid] | 4.6
